Experimental findings from the SangsterLogP compilation are described below.

The nature of the first data set: method code SF-AS, from DOI: 10.1021/je700381u. Conditions: pH 0.0.
`O=C(O)c1ccc(F)c(Br)c1`: the logD (usually the decadic logarithm of the distribution of all forms, ionised or not, between an organic phase and buffer at a given pH) is 3.56.
The same measure, in the same setting: to `O=C(O)c1cc(F)ccc1Br` belongs 2.21; to `O=C(O)c1cc(F)ccc1Cl`, 2.39.
As for `O=C(O)c1cccc(F)c1Cl`, the logD stood at 1.74.

The next data set in a line: method code SF-AS, from DOI: 10.1021/jm00234a001, PMID: 1003419.
Details: not given
With `OC[C@H]1O[C@@H](Oc2ccc(I)c(O[C@@H]3O[C@H](CO)[C@@H](O)[C@H](O)[C@H]3O)c2I)[C@H](O)[C@@H](O)[C@@H]1O`, the logP – broadly, a log measure of how a compound divides between an organic and an aqueous phase – is -1.31.
In the case of `CNC(=O)c1c(I)c(NC(C)=O)c(I)c(O[C@@H]2O[C@H](CO)[C@@H](O)[C@H](O)[C@H]2O)c1I`, the logP was -1.49.
On to `CC(=O)Nc1c(I)c(C(=O)N[C@H]2C(O)O[C@H](CO)[C@@H](O)[C@@H]2O)c(I)c(N(C)C(C)=O)c1I` (some centres not stated), for which the logP is -1.89.

The nature of another data set: method code SF-AS, from M. Kuchar, J. Tomkova, V. Rejholec, & O. Roubinek. (1992). Some problems of the chromatographic evaluation of lipophicity. In Kuchar, M. (Ed.) QSAR in Design of Bioactive Compounds (pp. 65-81). Prous …. Conditions: pH 3.4.
As to `CC(C)Cc1ccc(CC(=O)O)cc1`, the logD was determined as 3.35.
Still for that read-out and setting: to `COc1ccc(C(O)C(=O)O)cc1` (configuration not stated) belongs 0.63; to `O=C(O)CCc1ccc(OCc2ccccc2)c(Cl)c1`, 3.89; to `CCCCCCOc1ccc(CC(=O)O)cc1`, 3.96.

Experiment in the next data set: not given
Details: not given
Regarding `CCOP(=S)(OCC)Oc1cc(-c2ccccc2)on1`, the log partition coefficient (logP) was 4.58.
Still for that read-out and setting: next, `O=C1OCc2c(Cl)c(Cl)c(Cl)c(Cl)c21`: 3.22; `COP(=S)(OC)Oc1c(Cl)cc(C)cc1Cl`: 4.36.
Consider `O=C(Nc1ccccc1)N(Cc1ccc(Cl)cc1)C1CCCC1`, for which the log partition coefficient (logP) amounted to 4.7.

A short description of the next data set: method code SF-AS, from DOI: 10.1111/j.1476-5381.1975.tb07619.x, PMID: 1182339. The settings on record: pH 10.0.
Regarding `N=C(N)NC(=O)Nc1cccc([N+](=O)[O-])c1`, the logD worked out at 1.28.
Compound `COc1cc(NC(=O)NC(=N)N)ccc1C#N` registered a logD of 1.28.
Regarding `COc1ccc(NC(=O)NC(=N)N)cc1`, the logD amounted to 0.56.
On to `N=C(N)NC(=O)Nc1ccc(Cl)c(Cl)c1`, for which the logD is 2.39.

A short description of the next data set: from Pratesi, P.; Villa, L.; Ferri, V.; DeMicheli, C.; Grana, E.; Grieco, C.; Silipo, C.; Vittoria, A. (1979). On the additive-constitutive properties of substituent hydrophobic parameters in a set of ….
Details: not given
On to `N#CCCOc1ccccc1`, for which the logP amounted to 1.61.
Still for that read-out and setting: to `Oc1ccc(C2CCCCC2)cc1` belongs 4.22; to `CNS(=O)(=O)c1ccccc1`, 0.92; to `O=S(=O)(O)c1ccc2ccccc2c1`, 1.07.

A further data set can be described thus: method code SF-C, from DOI: 10.1038/194178b0.
Details: not given
In the case of `CC(=O)c1cccc(OCC(=O)O)c1`, the logP is 1.34.
On the same count and under the same terms, to `Cc1cccc(OCC(=O)O)c1` belongs 1.88; to `O=C(O)COc1cccc(C(F)(F)F)c1`, 2.52; to `N#Cc1cccc(OCC(=O)O)c1`, 1.2.

Experiment in a further data set: not given
Details: not given
This is another data set of the same source.
In turn, `Cc1cc(C)cc(O)c1` came in with a logP of 2.54.
Still for that read-out and setting: next, `Nc1ccc(F)c(Cl)c1`: 1.95; `CCOP(=O)(OCC)O/C(=C/Cl)c1ccc(Cl)cc1Cl`: 3.84; `c1ccc2ccccc2c1`: 3.43.

A short description of a further data set: method code SF-AS, from DOI: 10.1021/bi00730a008, PMID: 4688860.
Details: not given
`COc1ccc(NC=O)cc1` showed a logP of 1.03.
The same measure, in the same setting: to `O=CNc1ccc([N+](=O)[O-])cc1` belongs 1.43; to `Cc1ccc(NC=O)cc1`, 1.61; to `COc1cccc(NC=O)c1`, 1.25.

A short description of the next data set: method code SF-HPLC, from DOI: 10.1002/jps.2600831027, PMID: 7884677. Conditions: pH 2.0.
Consider `O=C(O)c1ccc(CCl)cc1`, for which the logD is 2.12.
Consider `COCc1ccc(C(=O)O)cc1`, for which the logD is 1.76.
Still for that read-out and setting: next, `O=C(O)Cc1ccc(C(=O)O)cc1`: 1.24; `O=C(O)c1ccc(CO)cc1`: 0.92.

Experiment in another data set: not given
Details: not given
This is another data set of the same source.
Turning to `O=C(O)CCCCCCCCCCCOC(=O)Oc1ccccc1`, the logP came out at 4.26.
`O=C(O)CCCCCCCCCCCCCCCOC(=O)Oc1ccccc1` yielded a log partition coefficient (logP) of 4.67.
Compound `O=C(O)CCCCCCCOC(=O)Oc1ccccc1` had a logP of 3.39.
`O=C(O)COC(=O)Oc1ccccc1` returned a lipophilicity (logP) of 1.72.

Experiment in the next data set: not given
Details: not given
The source holds these as a separate data set.
Compound `Nc1ccccc1[N+](=O)[O-]` registered a lipophilicity (logP) of 1.62.
On the same count and under the same terms, next, `COc1cccc(N)c1`: 1.11; `COc1cccc(O)c1`: 1.52.
The compound `Cc1cccc(C)c1O` yielded a logP of 2.38.

Experiment in a further data set: not given
Details: not given
The source holds these as a separate data set.
Turning to `Cc1ccc(CCN)cc1`, the logP was determined as 1.83.
`OCCCNc1ccccc1` came in with a logP of 0.57.
Still for that read-out and setting: next, `NCCCCc1ccccc1`: 2.25.
Turning to `Cc1ccccc1CCN`, the logP stood at 1.6.

The next data set is described as follows: method code SF-AS, from PMID: 8197227. Conditions: pH 7.4.
The compound `C(=NNc1nccs1)c1ccc2c(c1)OCO2` came in with a logD of 1.5.
On the same count and under the same terms, to `O=C(NNc1nccs1)c1ccc2c(c1)OCO2` belongs 1.06; to `NC(=S)NNC(=O)c1ccc2c(c1)OCO2`, 0.21; to `Cc1csc(NNC(=O)c2ccc3c(c2)OCO3)n1`, 1.41.

A short description of a further data set: method code SF-AS, from DOI: 10.1002/ps.2780370107. The settings on record: pH 0.0.
`CCOP(=O)(O)Cc1ccc(S(C)(=O)=O)cc1`: the logD was -0.4.
Same read-out and setting: to `CCOP(=O)(O)Cc1ccc(F)cc1` belongs 1.25.
Consider `CCOP(=O)(O)Cc1ccc(-c2ccccc2)cc1`, for which the logD came out at 2.37.
Turning to `CCOP(=O)(O)Cc1ccccc1`, the logD worked out at 0.81.

Experiment in another data set: not given
Details: not given
The source holds these as a separate data set.
Turning to `c1ccc2c(c1)ccc1c3ccccc3ccc21`, the logP was found to be 6.01.
On the same count and under the same terms, next, `c1cc2cccc3c4cccc5cccc(c(c1)c23)c54`: 6.53; `O=C(O)c1ccccc1O`: 1.75; `c1ccc2c(c1)cc1ccc3cccc4ccc2c1c34`: 6.57.

The nature of the next data set: method code SF-AS, from DOI: 10.1093/chemse/13.4.619. The settings on record: pH 7.2.
On to `O=[N+]([O-])c1ccc(Cc2ccncc2)cc1`, for which the logD worked out at 2.73.
Still for that read-out and setting: to `c1ccc(Cc2ccncc2)cc1` belongs 2.62; to `O=C(c1ccccc1)c1ccncc1`, 1.9; to `CC(=O)c1ccncc1`, 0.4.

The next data set in a line: method code SF-AS, from DOI: 10.1080/00021369.1974.10861343.
Details: not given
Consider `CCCOC(=O)C=COc1ccccc1`, for which the logP worked out at 3.72.
In the case of `CCOC(=O)C=COc1ccccc1`, the lipophilicity (logP) worked out at 3.18.

Still in this data set, the particulars now being: pH 3.0.
Turning to `O=C(O)/C=C/Oc1ccccc1Cl`, the logD stood at 2.69.
The same measure, in the same setting: next, `O=C(O)/C=C/Oc1ccccc1`: 2.27.

The next data set can be described thus: method code SF-HPLC, from DOI: 10.1016/0378-5173(87)90096-2. The settings on record: pH 8.0.
Compound `NC(=O)Cc1ccccn1` displayed a pH-dependent lipophilicity (logD) of -0.64.
The same measure, in the same setting: to `NC(=O)Cc1ccncc1` belongs -0.59; to `NC(=O)CCCc1ccccn1`, 0.06; to `NC(=O)Cc1cccnc1`, -0.59.

Experiment in another data set: not given
Details: not given
This is another data set of the same source.
In the case of `COCc1ccc(COC(=O)C2C(C=C(C)C)C2(C)C)cc1` (configuration not stated), the logP was 4.5.

Another data set is described as follows: method code SF-AS, from DOI: 10.1021/jf60177a051.
Details: not given
Consider `CC1=C(C(=O)Nc2ccccc2-c2ccccc2)SCCO1`, for which the log partition coefficient (logP) turned out to be 2.54.
On the same count and under the same terms, next, `CC1=C(C(=O)O)SCCO1`: 0.04.
In the case of `CC1=C(C(=O)Nc2ccccc2)S(=O)CCO1` (configuration not stated), the logP was found to be 0.64.
`CC1=C(C(=O)Nc2ccccc2)SCCO1` registered a logP of 1.73.

Experiment in another data set: not given
Details: not given
This is another data set of the same source.
Compound `OCc1ccncc1` showed a logP of -0.04.
Still for that read-out and setting: to `CNc1ccccc1` belongs 1.69; to `CC(=O)Nc1ccccc1Cl`, 1.35; to `OCc1ccc(F)cc1`, 1.36.

Experiment in another data set: not given
Details: not given
This is another data set of the same source.
`CC[C@H]1CCC[C@H](O[C@H]2CC[C@H](N(C)C)[C@@H](C)O2)[C@@H](C)C(=O)C2=C[C@@H]3[C@@H](C=C(C)[C@@H]4C[C@@H](O[C@@H]5O[C@@H](C)[C@H](OC)[C@@H](OC)[C@H]5OC)C[C@@H]34)[C@@H]2CC(=O)O1`: the logP turned out to be 4.92.
Same read-out and setting: to `O=C(O)c1cccc(Oc2ccccc2)c1` belongs 3.6.
On the same count and under the same terms, next, `O=C(O)c1ccccc1C(=O)O`: 0.87; `O=C(O)COc1ccc(Cl)cc1Cl`: 2.71.

A further data set in a line: method code SF-AS, from DOI: 10.1016/0378-5173(90)90042-3.
Details: not given
In turn, `CCCCCOC(=O)c1cc(=O)[nH]c(=O)[nH]1` showed a lipophilicity (logP) of 1.62.
Compound `CCOC(=O)c1cc(=O)[nH]c(=O)[nH]1` displayed a logP of 0.68.
For the compound `CC(C)CCOC(=O)c1cc(=O)[nH]c(=O)[nH]1`, the logP stood at 1.48.
With `COC(=O)c1cc(=O)[nH]c(=O)[nH]1`, the logP came to 0.63.
